Test results as given in ChEMBL document CHEMBL5303573, “Mapping human microbiome drug metabolism by gut bacteria and their genes” (Nature, 2019).

Experiments:
[1] = The drug is tested on Ruminococcus lactaris strain: ATCC29176 for biotransformation. The drug concentrations were measured before and after a 12-h incubation by liquid-chromatography-coupled mass spectrometry (LC–MS); settings: 2 µM
[2] = The drug is tested on Clostridium asparagiforme strain: DSM15981 for biotransformation. The drug concentrations were measured before and after a 12-h incubation by liquid-chromatography-coupled mass spectrometry (LC–MS); type: ADME; parameters: dose 2 uM, timepoint 0 vs 12 hours; settings: enterocloster asparagiformis, 2 µM
[3] = The drug is tested on Anaerotruncus colihominis strain: DSM17241 for biotransformation. The drug concentrations were measured before and after a 12-h incubation by liquid-chromatography-coupled mass spectrometry (LC–MS); settings: 2 µM
[4] = The drug is tested on Bacteroides fragilis strain: HMW610 for biotransformation. The drug concentrations were measured before and after a 12-h incubation by liquid-chromatography-coupled mass spectrometry (LC–MS); settings: 2 µM
[5] = bacteroides thetaiotaomicron, 12 h, 2 µM
Description: The drug is tested on Bacteroides thetaiotaomicron strain: 7330 for biotransformation. The drug concentrations were measured before and after a 12-h incubation by liquid-chromatography-coupled mass spectrometry (LC–MS)

[6] = bacteroides fragilis, 12 h, 2 µM
Description: The drug is tested on Bacteroides fragilis strain: DS-208 for biotransformation. The drug concentrations were measured before and after a 12-h incubation by liquid-chromatography-coupled mass spectrometry (LC–MS)

[7] = The drug is tested on Bacteroides fragilis strain: ATCC43859 for biotransformation. The drug concentrations were measured before and after a 12-h incubation by liquid-chromatography-coupled mass spectrometry (LC–MS); settings: 2 µM
[8] = parabacteroides johnsonii, 12 h, 2 µM
Description: The drug is tested on Parabacteroides johnsonii strain: DSM18315 for biotransformation. The drug concentrations were measured before and after a 12-h incubation by liquid-chromatography-coupled mass spectrometry (LC–MS)

[9] = The drug is tested on Bacteroides coprophilus strain: DSM18228 for biotransformation. The drug concentrations were measured before and after a 12-h incubation by liquid-chromatography-coupled mass spectrometry (LC–MS); settings: 2 µM
[10] = bacteroides fragilis, 12 h, 2 µM; remark: listed apart in the source
Description: The drug is tested on Bacteroides fragilis strain: 3397 (T10) for biotransformation. The drug concentrations were measured before and after a 12-h incubation by liquid-chromatography-coupled mass spectrometry (LC–MS)

[11] = The drug is tested on Bacteroides pectinophilus strain: ATCC43243 for biotransformation. The drug concentrations were measured before and after a 12-h incubation by liquid-chromatography-coupled mass spectrometry (LC–MS); settings: 2 µM
[12] = The drug is tested on Bifidobacterium longum subsp. Infantis strain: CCUG52486 for biotransformation. The drug concentrations were measured before and after a 12-h incubation by liquid-chromatography-coupled mass spectrometry (LC–MS); settings: 2 µM
[13] = The drug is tested on Providencia rettgeri strain: DSM1131 for biotransformation. The drug concentrations were measured before and after a 12-h incubation by liquid-chromatography-coupled mass spectrometry (LC–MS); type: ADME; parameters: dose 2 uM, timepoint 0 vs 12 hours; settings: 2 µM
[14] = The drug is tested on Ruminococcus torques strain: ATCC27756 for biotransformation. The drug concentrations were measured before and after a 12-h incubation by liquid-chromatography-coupled mass spectrometry (LC–MS); type: ADME; parameters: dose 2 uM, timepoint 0 vs 12 hours; settings: 2 µM
[15] = parabacteroides distasonis, 12 h, 2 µM
Description: The drug is tested on Parabacteroides distasonis strain: ATCC8503 for biotransformation. The drug concentrations were measured before and after a 12-h incubation by liquid-chromatography-coupled mass spectrometry (LC–MS)

[16] = bacteroides eggerthii, 12 h, 2 µM
Description: The drug is tested on Bacteroides eggerthii strain: DSM20697 for biotransformation. The drug concentrations were measured before and after a 12-h incubation by liquid-chromatography-coupled mass spectrometry (LC–MS)

[17] = The drug is tested on Parabacteroides merdae strain: ATCC43184 for biotransformation. The drug concentrations were measured before and after a 12-h incubation by liquid-chromatography-coupled mass spectrometry (LC–MS); settings: 2 µM
[18] = The drug is tested on Clostridium sp. strain: fecal isolate for biotransformation. The drug concentrations were measured before and after a 12-h incubation by liquid-chromatography-coupled mass spectrometry (LC–MS); settings: 2 µM
[19] = The drug is tested on Bacteroides caccae strain: ATCC43185 for biotransformation. The drug concentrations were measured before and after a 12-h incubation by liquid-chromatography-coupled mass spectrometry (LC–MS); settings: 2 µM
[20] = The drug is tested on Bifidobacterium breve strain: DSM20213 for biotransformation. The drug concentrations were measured before and after a 12-h incubation by liquid-chromatography-coupled mass spectrometry (LC–MS); settings: 2 µM

SMILES | Bacterial Biotransformation [1] | Bacterial Biotransformation [2] | Bacterial Biotransformation [3] | Bacterial Biotransformation [4] | Bacterial Biotransformation [5] | Bacterial Biotransformation [6] | Bacterial Biotransformation [7] | Bacterial Biotransformation [8] | Bacterial Biotransformation [9] | Bacterial Biotransformation [10] | Bacterial Biotransformation [11] | Bacterial Biotransformation [12] | Bacterial Biotransformation [13] | Bacterial Biotransformation [14] | Bacterial Biotransformation [15] | Bacterial Biotransformation [16] | Bacterial Biotransformation [17] | Bacterial Biotransformation [18] | Bacterial Biotransformation [19] | Bacterial Biotransformation [20]
C[C@@H](CO)NC(=O)[C@@H]1C=C2c3cccc4[nH]cc(c34)C[C@H]2N(C)C1.O=C(O)/C=C\C(=O)O [ERGONOVINE MALEATE] | Compound metabolized | Compound metabolized | Compound metabolized | Compound metabolized | Compound metabolized | Compound metabolized | Compound metabolized | Compound metabolized | Compound metabolized | Compound metabolized | Compound metabolized | Compound metabolized | Compound NOT metabolized | Compound NOT metabolized | – | – | – | – | – | –
Cc1nc(-c2ccc(OCC(C)C)c(C#N)c2)sc1C(=O)O [FEBUXOSTAT] | Compound metabolized | Compound NOT metabolized | Compound NOT metabolized | Compound NOT metabolized | Compound NOT metabolized | Compound NOT metabolized | Compound metabolized | – | – | Compound metabolized | Compound NOT metabolized | Compound NOT metabolized | – | Compound NOT metabolized | Compound NOT metabolized | Compound NOT metabolized | Compound NOT metabolized | Compound NOT metabolized | – | –
CC(C)OC(=O)C(C)(C)Oc1ccc(C(=O)c2ccc(Cl)cc2)cc1 [FENOFIBRATE] | – | Compound metabolized | Compound metabolized | Compound NOT metabolized | Compound NOT metabolized | Compound NOT metabolized | Compound NOT metabolized | Compound metabolized | – | Compound NOT metabolized | Compound metabolized | Compound NOT metabolized | Compound NOT metabolized | – | Compound NOT metabolized | Compound metabolized | – | – | Compound NOT metabolized | –
N=C(N)NC(=O)Cc1c(Cl)cccc1Cl [GUANFACINE] | Compound NOT metabolized | Compound NOT metabolized | Compound NOT metabolized | Compound NOT metabolized | – | Compound NOT metabolized | Compound NOT metabolized | Compound NOT metabolized | – | Compound NOT metabolized | Compound NOT metabolized | Compound NOT metabolized | Compound NOT metabolized | Compound NOT metabolized | Compound NOT metabolized | Compound NOT metabolized | Compound NOT metabolized | – | Compound NOT metabolized | –
CC(CN1c2ccccc2Sc2ccccc21)N(C)C (centres undefined) [PROMETHAZINE] | – | Compound NOT metabolized | Compound NOT metabolized | Compound NOT metabolized | – | Compound NOT metabolized | Compound NOT metabolized | Compound NOT metabolized | – | Compound NOT metabolized | Compound NOT metabolized | Compound NOT metabolized | – | Compound NOT metabolized | – | Compound NOT metabolized | Compound NOT metabolized | – | Compound NOT metabolized | Compound NOT metabolized
CCCN(CCC)CCc1cccc2c1CC(=O)N2 [ROPINIROLE] | Compound NOT metabolized | Compound NOT metabolized | Compound NOT metabolized | Compound NOT metabolized | Compound NOT metabolized | Compound NOT metabolized | Compound NOT metabolized | Compound NOT metabolized | – | – | Compound NOT metabolized | Compound NOT metabolized | Compound NOT metabolized | Compound NOT metabolized | – | Compound NOT metabolized | Compound NOT metabolized | – | – | Compound NOT metabolized
CN[C@H]1CC[C@@H](c2ccc(Cl)c(Cl)c2)c2ccccc21 [SERTRALINE] | Compound NOT metabolized | Compound NOT metabolized | Compound NOT metabolized | Compound NOT metabolized | Compound NOT metabolized | Compound NOT metabolized | Compound NOT metabolized | Compound NOT metabolized | – | Compound NOT metabolized | Compound NOT metabolized | Compound NOT metabolized | Compound NOT metabolized | Compound NOT metabolized | Compound NOT metabolized | Compound NOT metabolized | Compound NOT metabolized | – | Compound NOT metabolized | Compound NOT metabolized
CC(C)NCC(O)c1ccc(NS(C)(=O)=O)cc1 (centres undefined) [SOTALOL] | Compound NOT metabolized | Compound NOT metabolized | Compound NOT metabolized | Compound metabolized | Compound metabolized | Compound metabolized | Compound metabolized | Compound NOT metabolized | – | Compound metabolized | Compound NOT metabolized | Compound NOT metabolized | Compound NOT metabolized | Compound NOT metabolized | Compound NOT metabolized | Compound NOT metabolized | Compound NOT metabolized | – | Compound NOT metabolized | Compound NOT metabolized
O=C(CCCN1CCC2(CC1)C(=O)NCN2c1ccccc1)c1ccc(F)cc1 [SPIPERONE] | Compound NOT metabolized | Compound NOT metabolized | – | Compound NOT metabolized | – | Compound NOT metabolized | Compound NOT metabolized | – | Compound NOT metabolized | Compound NOT metabolized | Compound NOT metabolized | Compound NOT metabolized | – | Compound NOT metabolized | – | Compound NOT metabolized | Compound NOT metabolized | Compound NOT metabolized | Compound NOT metabolized | Compound NOT metabolized
